According to US10800741B2 (ANCUREALL PHARMACEUTICAL (SHANGHAI) CO., LTD., priority 2017, dated 2020):
Read-outs that look alike come from different tables or passages of the source.

Columns and labels:
[1] = system: human intestinal cancer cell line HCT116 (KRAS G13D mutation); test: Growth inhibition in combination with MEK1/2 inhibitor Trametinib, HCT116 (KRAS G13D mutation); type: cell-based; settings: 5 days
Protocol: Test Example 5 Synergistic Inhibition Effect of the Present Compounds in Combination with MEK1/2 Inhibitor on the Growth of RAS Mutant Tumor Cells In Vitro
The cell culture, drug treatment and MTT assay of human intestinal cancer cell line HCT116 (KRAS G13D mutation) and human non-small cell lung cancer cell line NCI-H1299 (NRAS Q61K mutation) were performed according to the method of test example 1. Cells were treated with the MEK1/2 inhibitor Trametinib at 25 nM, 2.5 nM and 0.25 nM alone or in combination with compound 66 or 125 of the present invention (5 days).

NCI-H1581 = NCI-H1581 subcutaneous transplantation tumor model, tumor growth inhibition in vivo; design: species or system Bab/c immunodeficient mice; settings: 17th day after the administration
Source text: (§1) Test Example 7 Inhibition of Tumour Cell Growth In Vivo
(§2) In order to establish subcutaneous transplantation tumor models of human non-small cell lung cancer and endometrial adenocarcinoma, Bab/c immunodeficient mice were subcutaneously inoculated with NCI-H1581 (ATCC) and AN3-CA (ATCC) cells, respectively.
(§3) Experimental animals: 6-week female Bab/c immunodeficient mice (about 20 g in weight). The mice were purchased from Shanghai Sippr-BK Experimental Animal Co., Ltd., raised in Animal Center of Shanghai University of Traditional Chinese Medicine, approved by Ethical Committee of Shanghai University of Traditional Chinese Medicine. The breeding environment was SPF grade.
Test samples: the present compounds 66 (purity: 99%), solid powder, stored at 4˜8° C.
Cells and animal models: NCI-H1581 cells were cultured in RPMI 1640 medium containing 10% fetal bovine serum. Log-phase NCI-H1581 cells were collected and re-suspended with PBS to 2.5×10^7 cells per ml for subcutaneous single-point inoculation of Bab/c immunodeficient mice at the right side of the back of mouse (5×10^6 cells, 0.2 ml).
When the tumor volume reached 100˜200 mm^3, the mice were randomly divided according to tumor size. The experiment was divided into solvent control group and drug administration group (compound 66 group). 6 mice in each group were administered 0.1 ml per 10 g body weight by intraperitoneal injection (i.p) once a day. The tumor was measured three times a week, and the tumor volume was calculated as: long diameter×short diameter^2/2. When the average tumor volume of the control group reached 2000 mm^3, the experiment was over and then the tumor was weighed and subjected to molecular pathology assay. Efficacy was assessed based on relative tumor growth inhibition value (TGI), and safety was assessed based on animal weight change.
Preparation of test samples: appropriate amount of compound 66 was weighed and mixed with ultrapure water; and methanesulfonic acid was added for clarification; and then 4M NaOH was added to adjust the PH to 3.8; and a final volume was made up with ultrapure water. The final concentrations were 0.5 mg/ml and 0.25 mg/ml, respectively.
T/C % refers to the relative tumor growth rate, that is, the percentage of relative tumor volume or tumor weight of the administration group and the control group at a certain time point. […]
(§4) Tumor volume data of 17 days after the start of administration were selected for statistical analysis among different groups, and independent sample T test was used to compare whether there were significant differences in relative tumor volume between the administration group and the control group. All data were analyzed using SPSS 18.0. […]

AN3-CA = AN3-CA subcutaneous transplantation tumor model, tumor growth inhibition in vivo; design: species or system Bab/c immunodeficient mice; settings: 5 mg/kg i.p once a day, 17th day after the administration
Source text: as §1, §2
as §3, with “grade. […]” for “grade.”
When the tumor volume reached 100˜200 mm^3, the mice were randomly divided according to tumor size. […] The tumor was measured three times a week, and the tumor volume was calculated as: long diameter×short diameter^2/2. […] Efficacy was assessed based on relative tumor growth inhibition value (TGI), and safety was assessed based on animal weight change. […]
as §4

protein kinases [2] = biological target: T1, protein kinases (Homo sapiens, UniProt P00533, L858R); test: KINOMEscan in vitro binding to 468 labeled protein kinases; settings: EGFR(L858R)
T1 construct: purchased Discovery X company (USA), KINOMEscan screening platform
Protocol: (§5) Test Example 6 Determination of Binding Affinity of the Present Compounds on Protein Kinases In Vitro
(§6) KINOMEscan screening platform of Discovery X company (USA) was used to identify the binding targets of the present compounds to protein kinases. Compound 66 of the present invention was dissolved in DMSO (Sigma Aldrich) at concentrations of 1000 nM, 10 nM and 1 nM, and then was subjected to in vitro binding reaction with 468 labeled protein kinases. Two samples were taken in parallel for each assay sample.
(§7) The lower the percentage of the test compound to the solvent control, the stronger the binding affinity of the test compound to the protein kinase in vitro.

protein kinases [3] = biological target: T2, protein kinases (Homo sapiens, UniProt P00519); test: as above; settings: read-out: Test compound/solvent control (%); for remaining binding at 0.001 µM: 1 nM; for remaining binding at 0.01 µM: 10 nM; for remaining binding at 1 µM: 1000 nM
T2 construct: purchased Discovery X company (USA), KINOMEscan screening platform
Protocol: as §5, §6, §7

protein kinases [4] = biological target: T3, protein kinases (Homo sapiens, UniProt P07949, V804M); test: as above; settings: RET(V804M), read-out: Test compound/solvent control (%)
T3 construct: purchased Discovery X company (USA), KINOMEscan screening platform
Protocol: as §5, §6, §7

protein kinases [5] = biological target: T4, protein kinases (Homo sapiens, UniProt P08631); test: as above; settings: HCK, read-out: Test compound/solvent control (%)
T4 construct: purchased Discovery X company (USA), KINOMEscan screening platform
Protocol: as §5, §6, §7

T1 sequence (P00533 25-1210 L858R): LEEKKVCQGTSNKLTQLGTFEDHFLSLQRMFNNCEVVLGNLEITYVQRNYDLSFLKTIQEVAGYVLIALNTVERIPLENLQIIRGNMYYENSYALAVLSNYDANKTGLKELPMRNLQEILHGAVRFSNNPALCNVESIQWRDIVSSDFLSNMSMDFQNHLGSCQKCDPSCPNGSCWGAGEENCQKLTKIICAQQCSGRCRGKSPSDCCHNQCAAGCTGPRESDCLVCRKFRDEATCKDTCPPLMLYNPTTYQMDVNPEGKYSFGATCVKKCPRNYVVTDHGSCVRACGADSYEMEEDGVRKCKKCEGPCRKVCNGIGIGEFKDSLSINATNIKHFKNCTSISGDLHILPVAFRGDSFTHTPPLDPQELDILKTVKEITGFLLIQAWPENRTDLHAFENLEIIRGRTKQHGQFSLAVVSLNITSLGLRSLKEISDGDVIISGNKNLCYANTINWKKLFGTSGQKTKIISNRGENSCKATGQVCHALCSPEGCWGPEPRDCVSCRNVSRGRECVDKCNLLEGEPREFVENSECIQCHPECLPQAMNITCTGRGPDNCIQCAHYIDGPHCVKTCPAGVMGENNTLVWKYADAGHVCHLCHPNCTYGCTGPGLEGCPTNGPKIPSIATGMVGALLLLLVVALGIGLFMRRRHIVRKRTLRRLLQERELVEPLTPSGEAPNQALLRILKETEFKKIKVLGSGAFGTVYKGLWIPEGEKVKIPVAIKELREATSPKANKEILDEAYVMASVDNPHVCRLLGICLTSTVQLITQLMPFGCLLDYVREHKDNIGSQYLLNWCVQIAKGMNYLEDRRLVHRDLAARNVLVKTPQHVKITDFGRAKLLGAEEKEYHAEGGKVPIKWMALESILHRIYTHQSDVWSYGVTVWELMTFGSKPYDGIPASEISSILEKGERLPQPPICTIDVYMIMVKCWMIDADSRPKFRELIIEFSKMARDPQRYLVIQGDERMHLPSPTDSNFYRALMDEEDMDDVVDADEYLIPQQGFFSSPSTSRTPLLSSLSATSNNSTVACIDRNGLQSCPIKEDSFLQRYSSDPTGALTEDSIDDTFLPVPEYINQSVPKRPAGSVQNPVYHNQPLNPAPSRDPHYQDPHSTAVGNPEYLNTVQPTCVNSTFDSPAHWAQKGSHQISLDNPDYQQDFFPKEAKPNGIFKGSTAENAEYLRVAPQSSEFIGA
T4 sequence (P08631 whole entry): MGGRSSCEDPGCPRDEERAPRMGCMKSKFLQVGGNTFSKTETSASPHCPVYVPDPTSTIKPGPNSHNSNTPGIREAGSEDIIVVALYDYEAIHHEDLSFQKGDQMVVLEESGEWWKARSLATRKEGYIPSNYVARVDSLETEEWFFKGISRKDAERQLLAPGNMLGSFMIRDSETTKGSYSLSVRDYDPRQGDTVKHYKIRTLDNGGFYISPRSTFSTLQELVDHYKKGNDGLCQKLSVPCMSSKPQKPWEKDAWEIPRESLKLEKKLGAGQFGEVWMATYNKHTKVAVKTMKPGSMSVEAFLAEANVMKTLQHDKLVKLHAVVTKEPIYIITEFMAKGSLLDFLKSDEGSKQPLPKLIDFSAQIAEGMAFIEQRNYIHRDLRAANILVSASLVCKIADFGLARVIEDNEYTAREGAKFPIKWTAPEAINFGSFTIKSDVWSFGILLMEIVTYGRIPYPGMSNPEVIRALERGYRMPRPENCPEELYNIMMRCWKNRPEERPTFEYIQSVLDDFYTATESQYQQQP
T3 sequence (P07949 29-1114 V804M): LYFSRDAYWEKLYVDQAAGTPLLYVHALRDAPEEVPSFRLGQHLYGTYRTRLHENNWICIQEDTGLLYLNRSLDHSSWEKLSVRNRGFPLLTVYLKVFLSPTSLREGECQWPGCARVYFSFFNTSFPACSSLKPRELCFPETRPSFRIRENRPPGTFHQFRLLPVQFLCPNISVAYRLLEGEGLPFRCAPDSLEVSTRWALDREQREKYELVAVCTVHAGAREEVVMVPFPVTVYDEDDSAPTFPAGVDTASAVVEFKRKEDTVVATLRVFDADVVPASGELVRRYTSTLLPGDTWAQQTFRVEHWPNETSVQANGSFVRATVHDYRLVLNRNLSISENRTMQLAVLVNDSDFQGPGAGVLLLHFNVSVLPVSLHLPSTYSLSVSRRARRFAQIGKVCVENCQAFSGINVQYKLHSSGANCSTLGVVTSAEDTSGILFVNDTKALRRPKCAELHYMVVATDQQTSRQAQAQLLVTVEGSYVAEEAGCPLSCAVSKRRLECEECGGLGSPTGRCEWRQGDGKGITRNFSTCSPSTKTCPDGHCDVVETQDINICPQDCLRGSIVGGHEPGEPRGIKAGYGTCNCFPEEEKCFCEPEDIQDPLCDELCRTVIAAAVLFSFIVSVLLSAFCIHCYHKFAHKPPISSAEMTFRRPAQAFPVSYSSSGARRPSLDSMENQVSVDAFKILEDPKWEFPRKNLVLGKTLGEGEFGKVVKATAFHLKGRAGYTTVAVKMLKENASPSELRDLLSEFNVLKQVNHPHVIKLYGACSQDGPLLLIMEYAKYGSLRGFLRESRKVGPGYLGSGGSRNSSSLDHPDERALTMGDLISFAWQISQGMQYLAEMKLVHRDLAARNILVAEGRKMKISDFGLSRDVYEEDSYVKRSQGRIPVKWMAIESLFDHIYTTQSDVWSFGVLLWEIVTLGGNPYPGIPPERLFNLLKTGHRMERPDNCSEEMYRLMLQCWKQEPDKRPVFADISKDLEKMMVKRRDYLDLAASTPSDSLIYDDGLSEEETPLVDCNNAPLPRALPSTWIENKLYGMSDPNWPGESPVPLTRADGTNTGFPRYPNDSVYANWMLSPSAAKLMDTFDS
T2 sequence (P00519 whole entry): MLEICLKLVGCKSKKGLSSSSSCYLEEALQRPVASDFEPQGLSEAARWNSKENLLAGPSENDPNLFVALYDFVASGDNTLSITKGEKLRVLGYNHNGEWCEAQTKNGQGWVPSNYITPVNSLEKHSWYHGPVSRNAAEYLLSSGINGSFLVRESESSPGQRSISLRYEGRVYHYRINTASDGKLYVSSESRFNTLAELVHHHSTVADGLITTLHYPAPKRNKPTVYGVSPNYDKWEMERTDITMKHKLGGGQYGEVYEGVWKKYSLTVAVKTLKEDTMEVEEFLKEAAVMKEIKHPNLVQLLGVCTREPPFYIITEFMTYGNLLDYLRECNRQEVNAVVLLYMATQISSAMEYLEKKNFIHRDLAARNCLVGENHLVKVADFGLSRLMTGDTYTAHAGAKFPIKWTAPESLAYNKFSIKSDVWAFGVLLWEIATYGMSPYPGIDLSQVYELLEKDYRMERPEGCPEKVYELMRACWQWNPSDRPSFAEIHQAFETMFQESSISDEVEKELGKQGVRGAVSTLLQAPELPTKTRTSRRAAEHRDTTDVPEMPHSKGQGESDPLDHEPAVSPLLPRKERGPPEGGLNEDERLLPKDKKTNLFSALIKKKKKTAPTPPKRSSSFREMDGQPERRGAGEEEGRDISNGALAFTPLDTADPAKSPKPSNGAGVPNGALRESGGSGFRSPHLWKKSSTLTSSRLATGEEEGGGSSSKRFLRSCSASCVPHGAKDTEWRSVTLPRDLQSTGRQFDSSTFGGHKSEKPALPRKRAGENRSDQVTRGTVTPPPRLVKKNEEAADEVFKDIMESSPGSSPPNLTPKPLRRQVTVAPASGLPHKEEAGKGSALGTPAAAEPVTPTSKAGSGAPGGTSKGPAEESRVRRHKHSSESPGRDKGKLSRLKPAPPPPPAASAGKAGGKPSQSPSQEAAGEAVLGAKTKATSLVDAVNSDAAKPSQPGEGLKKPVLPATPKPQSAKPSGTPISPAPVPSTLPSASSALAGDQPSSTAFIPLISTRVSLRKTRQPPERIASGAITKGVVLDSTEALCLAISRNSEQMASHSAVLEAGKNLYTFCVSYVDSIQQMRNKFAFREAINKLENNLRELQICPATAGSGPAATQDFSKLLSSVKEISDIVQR

With `COCCOc1cc2nccc(Oc3ccc(NC(=O)Nc4cc(C(C)(C)C)n[nH]4)c(Cl)c3)c2cc1NC(C)=O` [Compound 66, N-[4-{4-[3-(5-tert-butyl-2H-pyrazol-3-yl)-ureido]-3-chloro-phenoxy}-7-(2-methoxy-ethoxy)-quinolin-6-yl]-acetamide] the inhibition at 0.0078 µM ([1]; Homo sapiens, HCT-116, 120 h, compound 7.8 nM alone (solvent instead of Trametinib), read-out: cell growth inhibition (percentage)) was 7.67%, the inhibition at 0.0156 µM ([1]; Homo sapiens, HCT-116, 120 h, compound 15.6 nM alone (solvent instead of Trametinib), read-out: cell growth inhibition (percentage)) was 22% and the “cell growth inhibition (percentage)” value ([1]; compound 7.8 nM + Trametinib 0.25 nM) was 62.24%. The “cell growth inhibition (percentage)” value ([1]; compound 7.8 nM + Trametinib 2.5 nM) was 73.79%, the “cell growth inhibition (percentage)” value ([1]; compound 7.8 nM + Trametinib 25 nM) was 80.52% and the “cell growth inhibition (percentage)” value ([1]; compound 15.6 nM + Trametinib 0.25 nM) was 66.72%. For the same compound, the “cell growth inhibition (percentage)” value ([1]; compound 15.6 nM + Trametinib 2.5 nM) was 77.07%, the “cell growth inhibition (percentage)” value ([1]; compound 15.6 nM + Trametinib 25 nM) was 81.03% and the “T/C (%)” value (NCI-H1581; 2.5 mg/kg i.p once a day) was 7.91%. For the same compound, the “TGI (%)” value (NCI-H1581; 2.5 mg/kg i.p once a day) was 92.09%, the “T/C (%)” value (NCI-H1581; 5 mg/kg i.p once a day) was 1.07% and the “TGI (%)” value (NCI-H1581; 5 mg/kg i.p once a day) was 98.93%. For the same compound, the “T/C (%)” value (AN3-CA) was 1.37%, the “TGI (%)” value (AN3-CA) was 98.63% and the “Test compound/solvent control (%)” value (protein kinases [2]; 1 nM) was 87%. For the same compound, the “Test compound/solvent control (%)” value (protein kinases [2]; 10 nM) was 28%, the “Test compound/solvent control (%)” value (protein kinases [2]; 1000 nM) was 0% and the remaining binding at 0.001 µM (protein kinases [3]; ABL1-phosphorylated) was 49%. The remaining binding at 0.01 µM (protein kinases [3]; ABL1-phosphorylated) was 9.9%, the remaining binding at 1 µM (protein kinases [3]; ABL1-phosphorylated) was 0.1% and the remaining binding at 0.001 µM (protein kinases [3]; ABL1-unphosphorylated) was 41%. The remaining binding at 0.01 µM (protein kinases [3]; ABL1-unphosphorylated) was 8.3%, the remaining binding at 1 µM (protein kinases [3]; ABL1-unphosphorylated) was 0% and the remaining binding at 0.001 µM (protein kinases [4]; 1 nM) was 100%. It also gave a remaining binding at 0.01 µM (protein kinases [4]; 10 nM) of 34%, a remaining binding at 1 µM (protein kinases [4]; 1000 nM) of 0% and a remaining binding at 0.001 µM (protein kinases [5]; 1 nM) of 60%. The remaining binding at 0.01 µM (protein kinases [5]; 10 nM) was 1.7% and the remaining binding at 1 µM (protein kinases [5]; 1000 nM) was 0%.
